Assay results published in PubChem BioAssay AID2060613 (Molecular Pharmacology Branch, DTP, NCI, 2025).
Each block holds one compound with its values, some of them ahead of it.

Test system: 233499-124-R-J3-PDC complex spheroid viability
Experiment: Anticancer human tumor 233499-124-R-J3-PDC patient-derived colon adenocarcinoma cell line growth inhibition [CLK]
Details: for IC50: curve of first compound; for viability, T/C: stronger effect = lower value
How it was run: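 Patient-derived tumor cells grown as complex spheroids with HUVEC endothelial cells and mesenchymal stem cells, treated with drug combinations. Concentrations descend in half-log steps from near clinical Cmax, or from 10 microM if Cmax unknown.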

[1] = second compound 0.0316 µM, first compound 0.0316 µM
[2] = second compound 0.0316 µM, first compound 0.1 µM
[3] = second compound 0.0316 µM, first compound 0.316 µM
[4] = second compound 0.0316 µM, first compound 1 µM
[5] = second compound 0.0316 µM, first compound 3.16 µM
[6] = second compound 0.0316 µM, first compound 10 µM
[7] = second compound 0.1 µM, first compound 0.0316 µM
[8] = second compound 0.1 µM, first compound 0.1 µM
[9] = second compound 0.1 µM, first compound 0.316 µM
[10] = second compound 0.1 µM, first compound 1 µM
[11] = second compound 0.1 µM, first compound 3.16 µM
[12] = second compound 0.1 µM, first compound 10 µM
[13] = second compound 0.316 µM, first compound 0.0316 µM
[14] = second compound 0.316 µM, first compound 0.1 µM
[15] = second compound 0.316 µM, first compound 0.316 µM
[16] = second compound 0.316 µM, first compound 1 µM
[17] = second compound 0.316 µM, first compound 3.16 µM
[18] = second compound 0.316 µM, first compound 10 µM
[19] = second compound 1 µM, first compound 0.0316 µM
[20] = second compound 1 µM, first compound 0.1 µM
[21] = second compound 1 µM, first compound 0.316 µM
[22] = second compound 1 µM, first compound 1 µM
[23] = second compound 1 µM, first compound 3.16 µM
[24] = second compound 1 µM, first compound 10 µM
[25] = second compound 3.16 µM, first compound 0.0316 µM
[26] = second compound 3.16 µM, first compound 0.1 µM
[27] = second compound 3.16 µM, first compound 0.316 µM
[28] = second compound 3.16 µM, first compound 1 µM
[29] = second compound 3.16 µM, first compound 3.16 µM
[30] = second compound 3.16 µM, first compound 10 µM
[31] = second compound 10 µM, first compound 0.0316 µM
[32] = second compound 10 µM, first compound 0.1 µM
[33] = second compound 10 µM, first compound 0.316 µM
[34] = second compound 10 µM, first compound 1 µM
[35] = second compound 10 µM, first compound 3.16 µM
[36] = second compound 10 µM, first compound 10 µM
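Note: spheroids exposed to the drug combinations for seven days.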
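Throughout, for viability, T/C: percent viability relative to DMSO vehicle control wells taken as 100%.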

IC50 (second compound 0.0316 µM): > 10 µM
IC50 (second compound 0.1 µM): > 10 µM
IC50 (second compound 0.316 µM): > 10 µM
IC50 (second compound 1 µM): > 10 µM
IC50 (second compound 3.16 µM): > 10 µM
IC50 (second compound 10 µM): 5.76 µM
SMILES: C#Cc1c(F)ccc2cc(O)cc(-c3ncc4c(N5CC6CCC(C5)N6)nc(OCC56CCCN5CC(F)C6)nc4c3F)c12 (centres undefined) + CNC(=O)c1ccc(Nc2nc(OC3CCCC3)c3c(-c4ccc5nc(C)oc5c4)c[nH]c3n2)c(OC)c1
viability, T/C [1]: 98.8%
viability, T/C [2]: 98.2%
viability, T/C [3]: 86.5%
viability, T/C [4]: 91%
viability, T/C [5]: 75.9%
viability, T/C [6]: 88.7%
viability, T/C [7]: 76.5%
viability, T/C [8]: 62.8%
viability, T/C [9]: 72.7%
viability, T/C [10]: 75.8%
viability, T/C [11]: 74.3%
viability, T/C [12]: 57.7%
viability, T/C [13]: 90.3%
viability, T/C [14]: 74.9%
viability, T/C [15]: 85.3%
viability, T/C [16]: 68.3%
viability, T/C [17]: 74.8%
viability, T/C [18]: 55%
viability, T/C [19]: 78.3%
viability, T/C [20]: 78.9%
viability, T/C [21]: 68.4%
viability, T/C [22]: 56.8%
viability, T/C [23]: 81.4%
viability, T/C [24]: 55.2%
viability, T/C [25]: 54.4%
viability, T/C [26]: 73.1%
viability, T/C [27]: 52.8%
viability, T/C [28]: 70.8%
viability, T/C [29]: 68.3%
viability, T/C [30]: 53%
viability, T/C [31]: 75.5%
viability, T/C [32]: 77.7%
viability, T/C [33]: 68.8%
viability, T/C [34]: 68.4%
viability, T/C [35]: 60.9%
viability, T/C [36]: 40.6%

IC50 (second compound 0.0316 µM): 6.79 µM
IC50 (second compound 0.1 µM): 3.35 µM
IC50 (second compound 0.316 µM): 3.14 µM
IC50 (second compound 1 µM): 4.67 µM
IC50 (second compound 3.16 µM): 2.87 µM
IC50 (second compound 10 µM): 4.47 µM
SMILES: CC1(C)CCC(CN2CCN(c3ccc(C(=O)NS(=O)(=O)c4ccc(NCC5CCOCC5)c([N+](=O)[O-])c4)c(Oc4cnc5[nH]ccc5c4)c3)CC2)=C(c2ccc(Cl)cc2)C1 + CNC(=O)c1ccc(Nc2nc(OC3CCCC3)c3c(-c4ccc5nc(C)oc5c4)c[nH]c3n2)c(OC)c1
viability, T/C [1]: 79.5%
viability, T/C [2]: 96.9%
viability, T/C [3]: 94.3%
viability, T/C [4]: 106%
viability, T/C [5]: 96.5%
viability, T/C [6]: 27.2%
viability, T/C [7]: 68.9%
viability, T/C [8]: 70.2%
viability, T/C [9]: 85%
viability, T/C [10]: 76.2%
viability, T/C [11]: 51.6%
viability, T/C [12]: 20.8%
viability, T/C [13]: 76.4%
viability, T/C [14]: 79.6%
viability, T/C [15]: 81.3%
viability, T/C [16]: 76.8%
viability, T/C [17]: 49.9%
viability, T/C [18]: 25.1%
viability, T/C [19]: 74.3%
viability, T/C [20]: 90%
viability, T/C [21]: 72.1%
viability, T/C [22]: 68.4%
viability, T/C [23]: 60.1%
viability, T/C [24]: 33.5%
viability, T/C [25]: 77.1%
viability, T/C [26]: 66.5%
viability, T/C [27]: 76%
viability, T/C [28]: 76.6%
viability, T/C [29]: 47.8%
viability, T/C [30]: 24.2%
viability, T/C [31]: 70.1%
viability, T/C [32]: 71.9%
viability, T/C [33]: 76.8%
viability, T/C [34]: 74.9%
viability, T/C [35]: 59%
viability, T/C [36]: 29.2%
